# Literature values, collected in patent US11648240B2, “Pharmaceutical composition comprising famotidine, lidocaine and melatonin” (Cellix Bio Private Limited, priority 2021, dated 2023).
# What was measured:
# [1] = target: CYP1A2 (Homo sapiens, UniProt P05177); conditions: stated as believed, no test described
# [2] = test system: human immunodeficiency virus; conditions: in-vitro studies
# [3] = test system: sars-cov-2; conditions: in-vitro studies
# CYP1A2, sequence (P05177 whole entry, species assumed): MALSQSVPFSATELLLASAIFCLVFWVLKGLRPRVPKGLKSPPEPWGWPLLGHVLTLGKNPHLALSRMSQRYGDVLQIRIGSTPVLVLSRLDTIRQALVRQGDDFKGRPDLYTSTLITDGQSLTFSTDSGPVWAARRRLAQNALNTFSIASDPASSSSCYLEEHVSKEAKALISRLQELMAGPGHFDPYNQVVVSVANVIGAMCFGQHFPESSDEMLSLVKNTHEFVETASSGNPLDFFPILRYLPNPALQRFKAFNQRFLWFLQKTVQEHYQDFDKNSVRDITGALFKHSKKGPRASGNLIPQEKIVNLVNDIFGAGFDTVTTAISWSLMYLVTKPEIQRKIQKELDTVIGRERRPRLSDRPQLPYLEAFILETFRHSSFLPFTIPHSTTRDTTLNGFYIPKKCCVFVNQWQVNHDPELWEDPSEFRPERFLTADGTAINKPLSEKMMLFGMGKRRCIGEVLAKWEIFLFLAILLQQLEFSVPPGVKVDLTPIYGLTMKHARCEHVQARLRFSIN
smiles,measurement,setting,value
NC(N)=Nc1nc(CSCCC(N)=NS(N)(=O)=O)cs1 [Famotidine],metabolism through Cytochrome P450 system (CYP1A2),[1],25-30%
same,human immunodeficiency virus replication,[2],inhibits
same,sars-cov-2 replication,[3],inhibits
